Source: paper PMC3822755 (Bioorganic & medicinal chemistry letters, 2013)

How the values were obtained:
[1] = test system: VSV-GP (vesicular stomatitis virus particle bearing the EBOV GP); type: cell-based
[2] = test system: VSV-G (VSV bearing its native envelope glycoprotein G); type: cell-based, vesicular stomatitis virus; Vero host cells

| Compound | activity against VSV-GP entry (in words) [1] | activity against VSV-G (in words) [2] | inhibition of VSV-GP entry [1] [%] | potency against VSV-GP compared with 1-Chol and 2-Chol ([1]; 20 µM) |
| --- | --- | --- | --- | --- |
| CC(C)CCC[C@@H](C)[C@H]1CC[C@H]2[C@@H]3CC=C4C[C@@H](O)CC[C@]4(C)[C@H]3CC[C@]12C [cholesterol, reference compound] | relatively modest effects | – | – | – |
| KKKKGSGC(Chol) ^b [Peptide 3-Chol] | active | active | > 90 | much less potent |
